According to PubChem BioAssay (NCI):
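Protocol summary: plate cells (96-well), add compound at 5 concentrations, incubate 48 h, interpolate endpoints linearly. The concentration for full growth arrest is given as TGI.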

Tests used:
Assay in all cases: NCI anticancer screen, dose series, 48 h
786-0 renal = system: 786-0 renal
A498 renal = system: A498 renal
A549 NSCLC = system: A549 NSCLC
ACHN renal = system: ACHN renal
CAKI-1 renal = system: CAKI-1 renal
CCRF-CEM leukemia = system: CCRF-CEM leukemia
COLO 205 colon = system: COLO 205 colon
DLD-1 colon = system: DLD-1 colon
DMS 114 small cell lung = system: DMS 114 small cell lung
DMS 273 small cell lung = system: DMS 273 small cell lung
EKVX NSCLC = system: EKVX NSCLC
HCC-2998 colon = system: HCC-2998 colon
HCT-116 colon = system: HCT-116 colon
HCT-15 colon = system: HCT-15 colon
HL-60(TB) leukemia = system: HL-60(TB) leukemia
HOP-18 NSCLC = system: HOP-18 NSCLC
HOP-62 NSCLC = system: HOP-62 NSCLC
HOP-92 NSCLC = system: HOP-92 NSCLC
HT29 colon = system: HT29 colon
IGROV1 ovarian = system: IGROV1 ovarian
K-562 leukemia = system: K-562 leukemia
KM12 colon = system: KM12 colon
KM20L2 colon = system: KM20L2 colon
LOX IMVI melanoma = system: LOX IMVI melanoma
LXFL 529 NSCLC = system: LXFL 529 NSCLC
M14 melanoma = system: M14 melanoma
M19-MEL melanoma = system: M19-MEL melanoma
MALME-3M melanoma = system: MALME-3M melanoma
MOLT-4 leukemia = system: MOLT-4 leukemia
NCI-H226 lung = system: NCI-H226 lung
NCI-H23 lung = system: NCI-H23 lung
NCI-H460 lung = system: NCI-H460 lung
OVCAR-3 ovarian = system: OVCAR-3 ovarian
OVCAR-4 ovarian = system: OVCAR-4 ovarian
OVCAR-5 ovarian = system: OVCAR-5 ovarian
OVCAR-8 ovarian = system: OVCAR-8 ovarian
RPMI-8226 leukemia = system: RPMI-8226 leukemia
RXF 393 renal = system: RXF 393 renal
RXF-631 renal = system: RXF-631 renal
SF-268 CNS = system: SF-268 CNS
SF-295 CNS = system: SF-295 CNS
SF-539 CNS = system: SF-539 CNS
SK-MEL-2 melanoma = system: SK-MEL-2 melanoma
SK-MEL-28 melanoma = system: SK-MEL-28 melanoma
SK-MEL-5 melanoma = system: SK-MEL-5 melanoma
SK-OV-3 ovarian = system: SK-OV-3 ovarian
SN12C renal = system: SN12C renal
SNB-75 CNS = system: SNB-75 CNS
SNB-78 CNS = system: SNB-78 CNS
SR leukemia = system: SR leukemia
SW-620 colon = system: SW-620 colon
TK-10 renal = system: TK-10 renal
U251 CNS = system: U251 CNS
UACC-257 melanoma = system: UACC-257 melanoma
UACC-62 melanoma = system: UACC-62 melanoma
UO-31 renal = system: UO-31 renal
XF 498 CNS = system: XF 498 CNS
NCI-H522 lung = system: NCI-H522 lung
SNB-19 CNS = system: SNB-19 CNS

COC(=O)C1=C(c2ccc3c(c2)OCO3)OC(c2ccc3c(c2)OCO3)C1 (centres undefined)
TGI (786-0 renal): > 100 µM
TGI (A498 renal): > 100 µM
TGI (A549 NSCLC): > 100 µM
TGI (ACHN renal): > 100 µM
TGI (CAKI-1 renal): > 100 µM
TGI (CCRF-CEM leukemia): > 100 µM
TGI (COLO 205 colon): > 100 µM
TGI (DLD-1 colon): > 100 µM
TGI (DMS 114 small cell lung): > 100 µM
TGI (DMS 273 small cell lung): > 100 µM
TGI (EKVX NSCLC): > 100 µM
TGI (HCC-2998 colon): > 100 µM
TGI (HCT-116 colon): > 100 µM
TGI (HCT-15 colon): > 100 µM
TGI (HL-60(TB) leukemia): > 100 µM
TGI (HOP-18 NSCLC): > 100 µM
TGI (HOP-62 NSCLC): > 100 µM
TGI (HOP-92 NSCLC): > 100 µM
TGI (HT29 colon): > 100 µM
TGI (IGROV1 ovarian): > 100 µM
TGI (K-562 leukemia): > 100 µM
TGI (KM12 colon): > 100 µM
TGI (KM20L2 colon): > 100 µM
TGI (LOX IMVI melanoma): > 100 µM
TGI (LXFL 529 NSCLC): > 100 µM
TGI (M14 melanoma): > 100 µM
TGI (M19-MEL melanoma): > 100 µM
TGI (MALME-3M melanoma): > 100 µM
TGI (MOLT-4 leukemia): > 100 µM
TGI (NCI-H226 lung): > 100 µM
TGI (NCI-H23 lung): > 100 µM
TGI (NCI-H460 lung): > 100 µM
TGI (OVCAR-3 ovarian): > 100 µM
TGI (OVCAR-4 ovarian): > 100 µM
TGI (OVCAR-5 ovarian): > 100 µM
TGI (OVCAR-8 ovarian): > 100 µM
TGI (RPMI-8226 leukemia): > 100 µM
TGI (RXF 393 renal): > 100 µM
TGI (RXF-631 renal): > 100 µM
TGI (SF-268 CNS): > 100 µM
TGI (SF-295 CNS): > 100 µM
TGI (SF-539 CNS): > 100 µM
TGI (SK-MEL-2 melanoma): > 100 µM
TGI (SK-MEL-28 melanoma): > 100 µM
TGI (SK-MEL-5 melanoma): > 100 µM
TGI (SK-OV-3 ovarian): > 100 µM
TGI (SN12C renal): > 100 µM
TGI (SNB-75 CNS): > 100 µM
TGI (SNB-78 CNS): > 100 µM
TGI (SR leukemia): > 100 µM
TGI (SW-620 colon): > 100 µM
TGI (TK-10 renal): > 100 µM
TGI (U251 CNS): > 100 µM
TGI (UACC-257 melanoma): > 100 µM
TGI (UACC-62 melanoma): > 100 µM
TGI (UO-31 renal): > 100 µM
TGI (XF 498 CNS): > 100 µM

COC(=O)C(Cc1ccccc1)NC(=O)Cn1ccnc1[N+](=O)[O-] (centres undefined)
TGI (786-0 renal): > 100 µM
TGI (A498 renal): > 100 µM
TGI (A549 NSCLC): > 100 µM
TGI (ACHN renal): > 100 µM
TGI (CAKI-1 renal): > 100 µM
TGI (CCRF-CEM leukemia): > 100 µM
TGI (COLO 205 colon): > 100 µM
TGI (DMS 114 small cell lung): > 100 µM
TGI (DMS 273 small cell lung): > 100 µM
TGI (EKVX NSCLC): > 100 µM
TGI (HCT-15 colon): > 100 µM
TGI (HL-60(TB) leukemia): > 100 µM
TGI (HOP-18 NSCLC): > 100 µM
TGI (HOP-62 NSCLC): > 100 µM
TGI (HOP-92 NSCLC): > 100 µM
TGI (HT29 colon): > 100 µM
TGI (IGROV1 ovarian): > 100 µM
TGI (K-562 leukemia): > 100 µM
TGI (KM12 colon): > 100 µM
TGI (KM20L2 colon): > 100 µM
TGI (LOX IMVI melanoma): > 100 µM
TGI (LXFL 529 NSCLC): > 100 µM
TGI (M14 melanoma): > 100 µM
TGI (M19-MEL melanoma): > 100 µM
TGI (MALME-3M melanoma): > 100 µM
TGI (MOLT-4 leukemia): > 100 µM
TGI (NCI-H226 lung): > 100 µM
TGI (NCI-H23 lung): > 100 µM
TGI (NCI-H460 lung): > 100 µM
TGI (NCI-H522 lung): > 100 µM
TGI (OVCAR-4 ovarian): > 100 µM
TGI (OVCAR-5 ovarian): > 100 µM
TGI (OVCAR-8 ovarian): > 100 µM
TGI (RPMI-8226 leukemia): > 100 µM
TGI (RXF 393 renal): > 100 µM
TGI (RXF-631 renal): > 100 µM
TGI (SF-268 CNS): > 100 µM
TGI (SF-295 CNS): > 100 µM
TGI (SF-539 CNS): > 100 µM
TGI (SK-MEL-2 melanoma): > 100 µM
TGI (SK-MEL-28 melanoma): > 100 µM
TGI (SK-MEL-5 melanoma): > 100 µM
TGI (SK-OV-3 ovarian): > 100 µM
TGI (SN12C renal): > 100 µM
TGI (SNB-19 CNS): > 100 µM
TGI (SNB-75 CNS): > 100 µM
TGI (SW-620 colon): > 100 µM
TGI (TK-10 renal): > 100 µM
TGI (U251 CNS): > 100 µM
TGI (UACC-257 melanoma): > 100 µM
TGI (UACC-62 melanoma): > 100 µM
TGI (UO-31 renal): > 100 µM
TGI (XF 498 CNS): > 100 µM

O=C(c1nc2ccc(Cl)cc2[nH]c1=O)C(O)c1ccc2c(c1)OCO2 (centres undefined)
TGI (786-0 renal): > 100 µM
TGI (A498 renal): > 100 µM
TGI (A549 NSCLC): > 100 µM
TGI (ACHN renal): > 100 µM
TGI (CCRF-CEM leukemia): > 100 µM
TGI (COLO 205 colon): > 100 µM
TGI (DLD-1 colon): > 100 µM
TGI (DMS 114 small cell lung): 94.1 µM
TGI (DMS 273 small cell lung): > 100 µM
TGI (EKVX NSCLC): > 100 µM
TGI (HCC-2998 colon): > 100 µM
TGI (HL-60(TB) leukemia): > 100 µM
TGI (HOP-18 NSCLC): > 100 µM
TGI (HOP-62 NSCLC): > 100 µM
TGI (HOP-92 NSCLC): > 100 µM
TGI (HT29 colon): > 100 µM
TGI (IGROV1 ovarian): > 100 µM
TGI (K-562 leukemia): > 100 µM
TGI (KM12 colon): > 100 µM
TGI (KM20L2 colon): > 100 µM
TGI (LOX IMVI melanoma): > 100 µM
TGI (LXFL 529 NSCLC): > 100 µM
TGI (M14 melanoma): > 100 µM
TGI (M19-MEL melanoma): > 100 µM
TGI (MALME-3M melanoma): > 100 µM
TGI (MOLT-4 leukemia): > 100 µM
TGI (NCI-H226 lung): > 100 µM
TGI (NCI-H23 lung): > 100 µM
TGI (NCI-H460 lung): > 100 µM
TGI (NCI-H522 lung): > 100 µM
TGI (OVCAR-4 ovarian): > 100 µM
TGI (OVCAR-5 ovarian): > 100 µM
TGI (OVCAR-8 ovarian): > 100 µM
TGI (RPMI-8226 leukemia): > 100 µM
TGI (RXF 393 renal): > 100 µM
TGI (RXF-631 renal): > 100 µM
TGI (SF-268 CNS): > 100 µM
TGI (SF-295 CNS): > 100 µM
TGI (SK-MEL-2 melanoma): > 100 µM
TGI (SK-MEL-28 melanoma): > 100 µM
TGI (SK-OV-3 ovarian): > 100 µM
TGI (SNB-75 CNS): > 100 µM
TGI (SW-620 colon): > 100 µM
TGI (TK-10 renal): > 100 µM
TGI (U251 CNS): > 100 µM
TGI (UACC-257 melanoma): > 100 µM
TGI (UACC-62 melanoma): > 100 µM
TGI (UO-31 renal): > 100 µM
TGI (XF 498 CNS): > 100 µM
